Results reported in patent publication US10350239B2, “Pharmaceutical composition for treating cancer comprising trypsinogen and/or chymotrypsinogen and an active agent selected from a selenium compound, a vanilloid compound and a cytoplasmic glycolysis reduction agent” (Propanc Pty Ltd, priority 2009, dated 2019).

Columns and labels:
HCT-15 = experiment: CellTiter-Blue cell growth assay, HCT-15; type: cell-based, human; details: 72 hours, Tables 11-13
Method: (§1) All the cell lines used in these studies were of human origin and were sourced from the American Type Culture Collection (ATCC) (Rockville, Md., USA).
(§2) The cells were cultured at 37° C. in a humidified cell culture incubator supplied with 95% air/5% CO2.
(§3) Test Article concentrations were tested in triplicates for each cell line. The CellTiter-Blue® Assay was carried out on all plates 72 hours post addition of Test Articles.
(§4) Following incubation of cells in Test Article-containing media, 10 μL of CellTiter-Blue® was added to each well and incubated with cells for up to 4 hours. Fluorescence was measured using a Spectramax Gemini XPS Fluorometer. All data were recorded and entered into Microsoft® Excel spreadsheets for interpretation.
(§5) Data collected from CellTiter-Blue® assays were plotted as dose response curves for IC50 determination, and as isobolograms to assess the type of interaction between Test Article combinations. For IC50 determinations, growth inhibition was calculated and plotted against compound concentration. In these plots, the X-axis (compound concentration) was represented in a logarithmic scale. IC50 concentration was calculated as the half maximal (50%) inhibitory concentration (IC) for each compound using GraphPad Prism version 5.0 for Mac OSX (GraphPad Software, San Diego Calif., USA).

HCT-15 cells = experiment: Isobolographic combination assay, HCT-15 cells; type: cell-based, human
Method: (§6) The dose-response relations of agents can be used to construct a model giving the expected effect of a combination. The combination of drugs A and B shall be termed (da,db) where da and db are doses of A and B. Effect is treated as a mathematical function, E(da,db). E is sometimes expressed as a fractional effect, then the survival fraction is S: S=1-E. Finally, Da and Db are doses of drugs A and B given separately, which produce an isoeffective response with the combination. Isoboles (iso-effect curves) can be constructed based on the assumption that there is no interaction between the drugs used in combination. The combination (da, db) is represented by a point on a graph that has axes representing doses of the individual drugs. […]
(§7) This ratio is also called g value and it used to determine the type of interaction. In this case the calculated isobole is concave. […]
(§8) The initial concentrations for each compound in each cell line were decided based on the calculated IC50 in a way that the IC50 for each drug fell within the concentration in the dilution series. […]
as §4, with “interpretation. […]” for “interpretation.”

MIAPaCa-2 = experiment: CellTiter-Blue cell growth assay, MIAPaCa-2; type: cell-based, human; details: 72 hours, Tables 11-13
Method: as §1, §2, §3, §4, §5

A549 = experiment: CellTiter-Blue cell growth assay, A549; type: cell-based, human; details: A-549; 72 hours; Tables 11-13
Method: as §1, §2, §3, §4, §5

[1] = system: A-549, HCT-15 and MIAPaCa-2 cells; experiment: CellTiter-Blue cell growth assay, three selected cell lines together; type: cell-based, human
Method: as §1, §2, §3, §4, §5

MIAPaCa-2 cells = experiment: Isobolographic combination assay, MIAPaCa-2 cells; type: cell-based, human
Method: as §6, §7, §8
as §4, with “interpretation. […]” for “interpretation.”

A-549 cells = experiment: Isobolographic combination assay, A-549 cells; type: cell-based, human
Method: as §6, §7, §8
as §4, with “interpretation. […]” for “interpretation.”

[2] = system: bFGF-induced angiogenesis; experiment: AngioChamber assay (fibrous capsule wet weight); type: in vivo; details: female FvB mice, once daily Day 0-4, capsule excised Day 5, p<0.05
Description: The AngioChamber™ assay utilises the normal physiological process of wound healing, to promote fibrous capsule formation around an implanted chamber (Wood, J. M., Bold, G., Buchdunger, E., Cozens, R., et al. PTK787/ZK 222584, a Novel and Potent Inhibitor of Vascular Endothelial Growth Factor Tyrosine Kinases, Impairs Vascular Endothelial Growth Factor-Induced Responses and Tumour Growth After Oral Administration. Cancer Research, 60 (8):2178-2189 (2000)). The inclusion of Basic Fibroblast Growth Factor (bFGF) in the chamber supports the fibrouse capsule formation while inducing blood vessel development. […] The fibrous capsule around the chamber was removed and the wet weight recorded. […] The vascularised fibrous capsule that had formed around each chamber was carefully removed and the wet weight recorded immediately. Angiogenesis inhibition by Test Articles (%) was calculated using the following formula: % Inhibition=[(A−B)/(A−C)×100] where A is the mean capsule weight from mice with implanted AngioChambers™ containing growth factor and treated with Vehicle Control (Group 2), B is the mean capsule weight from mice with implanted AngioChambers™ containing growth factor and treated with Test Article (Groups 3-5), and C is the mean capsule weight from mice with implanted AngioChambers™ without growth factor and treated with Vehicle Control (Group 1). […]

[3] = Body weight in the AngioChamber study; type: in vivo; details: female FvB mice; Day 0 to Day 5; 60 mg/kg p.o. daily
Method: Body weight measurements were recorded for all animals on the first treatment day (Day 0) and then daily until the termination day of the study (Day 5).
Each animal's body weight was measured immediately prior to dosing. The volume of dosing solution administered to each animal was calculated and adjusted based on individual body weight.
All statistical calculations were performed using SigmaStat 3.0 (SPSS Australasia, North Sydney, NSW, Australia). A paired t-test was used to determine the significance in body weight change within a treatment group between Day 0 and the termination day of the study. […] Significant induction of the fibrous capsule formation by bFGF is considered to be essential to accept the study results. A One-Way Analysis of Variance (ANOVA) was performed on the capsule weight data at the end of the study. Where significant differences were found, All Pairwise Multiple Comparison and Multiple Comparison versus Control Group Procedures (Holm-Sidak Method) were performed. A p value of less than 0.05 was considered significant.

[4] = background statement; cited from earlier work

Which results are given for Trypsinogen?
IC50 values (HCT-15): 410 µg/mL; Maximum Inhibition (%) (HCT-15): 77.2%; type of interaction in combination with chymotrypsinogen (isobolographic, in words) (HCT-15 cells): non-antagonistic interaction; type of interaction in combination with α-amylase (isobolographic, in words) (HCT-15 cells): non-synergistic interaction; IC50 values (MIAPaCa-2): 280 µg/mL; Maximum Inhibition (%) (MIAPaCa-2): 82.3%; IC50 values (A549): 230 µg/mL; Maximum Inhibition (%) (A549): 75.7%; IC50 values, range over all three cell lines [1]: 230 to 410 µg/mL; type of interaction in combination with chymotrypsinogen (isobolographic, in words) (MIAPaCa-2 cells): wide-range of synergistic interaction; type of interaction in combination with α-amylase (isobolographic, in words) (MIAPaCa-2 cells): wide-range type; type of interaction in combination with chymotrypsinogen (isobolographic, in words) (A-549 cells): wide-range of synergistic interaction; type of interaction in combination with α-amylase (isobolographic, in words) (A-549 cells): narrow-range type

Which “angiogenesis (capsule wet weight) compared to the Induction Control (Vehicle Control with bFGF)” value ([2]; JBp1 and JBp1-DCM i.p., Sorafenib 60 mg/kg p.o.) does the source give for `CNC(=O)c1cc(Oc2ccc(NC(=O)Nc3ccc(Cl)c(C(F)(F)F)c3)cc2)ccn1` [Sorafenib] here?
Its value is “significant reduction in angiogenesis”.

And the “angiogenesis (capsule wet weight) compared with JBp1 monotherapy” value [2]?
Its value is “significantly reduced angiogenesis”.

And the “body weight loss at termination of the study” value [3]?
Its value is 5.6%.

For `C[Se]CC[C@H](N)C(=O)O` [selenomethionine], which “toxic level (organic forms of selenium)” value [4] is on record?
Its value is “about 3500 micrograms daily”.
